This passage reports melting point, IC50 and BACE1/BACE2 selectivity results from patent US7700602B2, “Amino-5,5-diphenylimidazolone derivatives for the inhibition of β-secretase” (Wyeth LLC, priority 2004, dated 2010).

Broadly, the melting point is the temperature, or range, at which the solid turns liquid. As a reminder, the IC50 is the concentration that inhibits the measured activity by half.

One data set deals with human BACE1 (Homo sapiens, UniProt P56817). Description: Fluorescent kinetic assay, inhibition of BACE1 (WABC-6 peptide substrate).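 Note: fluorescence monitored at 320 nm excitation and 420 nm emission every 40 s over 30 min, with the substrate cleavage rate taken from the linear slope.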 The format is biochemical. Particulars: 10 nM enzyme, 25 μM substrate WABC-6, pH 4.5, room temperature; read-out: IC50 (μM) BACE1.
human BACE1, sequence (P56817 46-501): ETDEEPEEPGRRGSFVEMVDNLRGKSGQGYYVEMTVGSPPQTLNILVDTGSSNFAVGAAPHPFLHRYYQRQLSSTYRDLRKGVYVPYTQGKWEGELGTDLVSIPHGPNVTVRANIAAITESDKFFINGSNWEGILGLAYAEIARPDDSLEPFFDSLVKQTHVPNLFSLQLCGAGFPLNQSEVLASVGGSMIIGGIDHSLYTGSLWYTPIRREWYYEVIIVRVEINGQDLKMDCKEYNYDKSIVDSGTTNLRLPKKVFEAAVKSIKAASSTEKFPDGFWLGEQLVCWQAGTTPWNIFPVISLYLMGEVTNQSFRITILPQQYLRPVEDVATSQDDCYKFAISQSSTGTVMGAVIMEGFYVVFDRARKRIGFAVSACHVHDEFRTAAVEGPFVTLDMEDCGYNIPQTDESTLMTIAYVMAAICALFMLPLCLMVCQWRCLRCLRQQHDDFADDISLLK
Another data set addresses T1, human BACE2 (Homo sapiens, UniProt Q9Y5Z0).
T1 sequence (Q9Y5Z0 63-518): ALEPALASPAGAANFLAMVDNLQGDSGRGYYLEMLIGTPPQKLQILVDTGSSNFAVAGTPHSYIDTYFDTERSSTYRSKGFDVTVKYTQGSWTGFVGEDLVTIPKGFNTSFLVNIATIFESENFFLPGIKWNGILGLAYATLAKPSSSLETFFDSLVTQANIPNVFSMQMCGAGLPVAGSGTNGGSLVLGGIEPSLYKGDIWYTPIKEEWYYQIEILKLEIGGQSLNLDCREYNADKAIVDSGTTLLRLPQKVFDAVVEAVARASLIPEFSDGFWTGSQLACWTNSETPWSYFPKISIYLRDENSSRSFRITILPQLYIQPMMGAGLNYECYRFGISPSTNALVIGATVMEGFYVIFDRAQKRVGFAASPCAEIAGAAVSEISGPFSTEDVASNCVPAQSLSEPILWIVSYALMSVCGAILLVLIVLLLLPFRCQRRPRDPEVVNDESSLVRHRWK
Description: Fluorescent Kinetic Assay for Human Recombinant BACE 2 (selectivity BACE1/BACE2).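 Note: cleavage rate from the linear slope of fluorescence (excitation 320 nm, emission 420 nm) recorded every 40 s over 30 min at room temperature, sodium acetate buffer with 0.05% CHAPS.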 The format is biochemical. Particulars: selectivity BACE1 over BACE2; 1.5 nM human BACE2, 25 μM substrate, pH 4.5.

For the molecule `CCCNC1=NC(c2cccc(-c3cncnc3)c2)(c2ccc(OCCC)c(C)c2)C(=O)N1C` (stereo not drawn), the melting point fell in the range of 64 to 66 °C.
Consider `COc1cc(C2(c3cccc(-c4cccnc4)c3)N=C(N)N(C)C2=O)cc(OC)c1OC` (stereo not drawn) [Example 23], for which the melting point is 104 to 107 °C. Besides, the half-inhibitory concentration (IC50) at human BACE1 fell in the range of 0.01 to 0.1 µM. The BACE1/BACE2 selectivity result at human BACE2 is listed as “II (II = 10-100-fold selectivity)”.
For the molecule `CN1C(=O)C(c2cccc(OC(F)(F)F)c2)(c2cccc(-c3cccnc3)c2)N=C1N` (stereo not drawn) [Example 25], the melting point turned out to be 198 °C. Also, the concentration for half-maximal inhibition (IC50) at human BACE1 fell in the range of 0.01 to 0.1 µM. For the same molecule, at human BACE2, the BACE1/BACE2 selectivity result is listed as “II (II = 10-100-fold selectivity)”.
On to `CN1C(=O)C(c2cccc(-c3cccnc3)c2)(c2ccc(OC(F)(F)F)c(C(F)(F)F)c2)N=C1N` (stereo not drawn) [Example 26], for which the melting point was found to be 98 °C. For the same molecule, at human BACE1, the IC50 was 0.01 to 0.1 µM. For the same molecule, on human BACE2, the BACE1/BACE2 selectivity result is reported as “II (II = 10-100-fold selectivity)”.
Turning to `CCOc1ccc(C2(c3ccc(F)c(-c4cccnc4)c3)N=C(N)N(C)C2=O)cc1OCC` (stereo not drawn) [Example 27], the melting point lay in the range of 99 to 100 °C. Besides, the half-inhibitory concentration (IC50) on human BACE1 lay in the range of 0.01 to 0.1 µM. Besides, the BACE1/BACE2 selectivity entry on human BACE2 is on record as “II (II = 10-100-fold selectivity)”.
`CN1C(=O)C(c2ccc(OC(F)(F)F)c(Cl)c2)(c2ccc(F)c(-c3cccnc3)c2)N=C1N` (stereo not drawn) [Example 28] registered a melting point of 99 to 102 °C. Also, at human BACE1, the IC50 lay in the range of 0.01 to 0.1 µM. The BACE1/BACE2 selectivity result at human BACE2 is “II (II = 10-100-fold selectivity)”.
For `COc1ccc(C2(c3cccc(-c4ccncc4)c3)N=C(N)N(C)C2=O)cc1C` (stereo not drawn) [Example 36, 2-Amino-5-(4-methoxy-3-methylphenyl)-3-methyl-5-(3-pyridin-4-ylphenyl)-3,5-dihydro-4H-imidazol-4-one] the same measures were 175 °C, 0.01 to 0.1 µM and “III (III = <10-fold selectivity)”.
For `CN1C(=O)C(c2ccc(OC(F)(F)F)c(F)c2)(c2ccc(F)c(-c3cncc(Cl)c3)c2)N=C1N` (stereo not drawn) [Example 42] the same measures were 201 to 203 °C, 0.11 to 1 µM and “II (II = 10-100-fold selectivity)”.
Take `CCOc1ccc(C2(c3cccc(-c4cncnc4)c3)N=C(N)N(C)C2=O)cc1OCC` (stereo not drawn) [Example 44]: the melting point lay within 100 to 105 °C. Further, the IC50 on human BACE1 was 0.01 to 0.1 µM. Further, the BACE1/BACE2 selectivity result on human BACE2 is “II (II = 10-100-fold selectivity)”.
As for `CN1C(=O)C(c2ccc(OC(F)(F)F)cc2)(c2ccc(F)c(-c3cncc(Cl)c3)c2)N=C1N` (stereo not drawn) [Example 46], the melting point was 241 to 243 °C. Besides, the half-inhibitory concentration (IC50) at human BACE1 fell in the range of 0.11 to 1 µM. The BACE1/BACE2 selectivity result at human BACE2 was “II (II = 10-100-fold selectivity)”.
As for `CN1C(=O)C(c2ccc(OC(F)(F)F)cc2)(c2ccc(F)c(-c3cncc(F)c3)c2)N=C1N` (stereo not drawn) [Example 47], the melting point was 216 to 218 °C. Further, the half-inhibitory concentration (IC50) at human BACE1 was in the range of 0.11 to 1 µM. The BACE1/BACE2 selectivity result at human BACE2 is on record as “II (II = 10-100-fold selectivity)”.
For the molecule `CN1C(=O)C(c2ccc(OC(F)(F)F)cc2)(c2ccc(Cl)c(-c3cncnc3)c2)N=C1N` (stereo not drawn) [Example 49], the melting point lay in the range of 124 to 129 °C. The IC50 on human BACE1 is 0.11 to 1 µM. Moreover, on human BACE2, the BACE1/BACE2 selectivity result is “I (I = >100-fold selectivity)”.
Regarding `CN1C(=O)C(c2ccc(OC(F)(F)F)cc2)(c2ccc(F)c(-c3cccnc3)c2)N=C1N` (stereo not drawn) [Example 50], the melting point stood at 134 °C. The IC50 on human BACE1 lay in the range of 0.01 to 0.1 µM. In addition, on human BACE2, the BACE1/BACE2 selectivity result is “II (II = 10-100-fold selectivity)”.
For `COc1cncc(-c2cccc(C3(c4ccc(OC(F)(F)F)cc4)N=C(N)N(C)C3=O)c2)c1` (stereo not drawn) [Example 51] the same measures were 212 °C, 0.01 to 0.1 µM and “III (III = <10-fold selectivity)”.
Molecule `COc1ccc(C2(c3ccc(F)c(-c4cncnc4)c3)N=C(N)N(C)C2=O)cc1C(F)(F)F` (stereo not drawn) [Example 56] returned a melting point of 115 °C. In addition, the concentration for half-maximal inhibition (IC50) on human BACE1 was in the range of 0.01 to 0.1 µM. Besides, at human BACE2, the BACE1/BACE2 selectivity entry is listed as “I (I = >100-fold selectivity)”.
In turn, `Cc1cc(C2(c3cccc(-c4cncnc4)c3)N=C(N)N(C)C2=O)ccc1O[C@H](C)c1ccccc1` (stereo partly drawn) [Example 131, 2-amino-3-methyl-5-{3-methyl-4-[(1R)-1-phenylethoxy]phenyl}-5-(3-pyrimidin-5-ylphenyl)-3,5-dihydro-4H-imidazol-4-one] had a melting point of 112 to 114 °C. Further, the IC50 at human BACE1 is 0.01 to 0.1 µM.
Consider `CN1C(=O)[C@](c2ccc(OC(F)F)cc2)(c2cccc(-c3ccc(F)nc3)c2)N=C1N` [Example 135A, (5S)-2-Amino-5-[4-(difluoromethoxy)phenyl]-5-[3-(6-fluoropyridin-3-yl)phenyl]-3-methyl-3,5-dihydro-4H-imidazol-4-one], for which, on human BACE1, the IC50 is above 1 µM. Also, the BACE1/BACE2 selectivity result on human BACE2 was “III (III = <10-fold selectivity)”.
In the case of `CN1C(=O)[C@@](c2ccc(OC(F)F)cc2)(c2cccc(-c3ccc(F)nc3)c2)N=C1N` [Example 135B, (5R)-2-Amino-5-[4-(difluoromethoxy)phenyl]-5-[3-(6-fluoropyridin-3-yl)phenyl]-3-methyl-3,5-dihydro-4H-imidazol-4-one], at human BACE1, the IC50 was 0.01 to 0.1 µM. For the same molecule, the BACE1/BACE2 selectivity result at human BACE2 is on record as “II (II = 10-100-fold selectivity)”.
With `CCOc1ccc([C@]2(c3ccc(F)c(-c4cccnc4F)c3)N=C(N)N(C)C2=O)cc1OCC` [Example 136A, (5S)-2-Amino-5-(3,4-diethoxyphenyl)-5-[4-fluoro-3-(2-fluoropyridin-3-yl)phenyl]-3-methyl-3,5-dihydro-4H-imidazol-4-one], the 50% inhibitory concentration (IC50) on human BACE1 lay in the range of 0.01 to 0.1 µM. Also, the BACE1/BACE2 selectivity result at human BACE2 is “II (II = 10-100-fold selectivity)”.
Taken in the same sequence, the figures for `CN1C(=O)[C@](c2ccc(OC(F)F)cc2)(c2cccc(-c3cc(F)cnc3F)c2)N=C1N` [Example 137A, (5S)-2-Amino-5-[4-(difluoromethoxy)phenyl]-5-[3-(2,5-difluoropyridin-3-yl)phenyl]-3-methyl-3,5-dihydro-4H-imidazol-4-one] were above 1 µM and “III (III = <10-fold selectivity)”.
On to `CN1C(=O)[C@@](c2ccc(OC(F)F)cc2)(c2cccc(-c3cc(F)cnc3F)c2)N=C1N` [Example 137B, (5R)-2-Amino-5-[4-(difluoromethoxy)phenyl]-5-[3-(2,5-difluoropyridin-3-yl)phenyl]-3-methyl-3,5-dihydro-4H-imidazol-4-one], for which the concentration for half-maximal inhibition (IC50) on human BACE1 was in the range of 0.01 to 0.1 µM. Besides, the BACE1/BACE2 selectivity entry at human BACE2 is listed as “II (II = 10-100-fold selectivity)”.
Take `CN1C(=O)[C@](c2ccc(OCCF)cc2)(c2ccc(F)c(-c3cncnc3)c2)N=C1N` [Example 139A, (5S)-2-Amino-5-[4-(2-fluoroethoxy)phenyl]-5-(4-fluoro-3-pyrimidin-5-ylphenyl)-3-methyl-3,5-dihydro-4H-imidazol-4-one]: the 50% inhibitory concentration (IC50) at human BACE1 was 0.01 to 0.1 µM. In addition, at human BACE2, the BACE1/BACE2 selectivity result is “I (I = >100-fold selectivity)”.
On to `CN1C(=O)[C@@](c2ccc(OCCF)cc2)(c2ccc(F)c(-c3cncnc3)c2)N=C1N` [Example 139B, (5R)-2-Amino-5-[4-(2-fluoroethoxy)phenyl]-5-(4-fluoro-3-pyrimidin-5-ylphenyl)-3-methyl-3,5-dihydro-4H-imidazol-4-one], for which the IC50 on human BACE1 was 0.11 to 1 µM. Besides, on human BACE2, the BACE1/BACE2 selectivity result is reported as “III (III = <10-fold selectivity)”.
Consider `COc1ccc([C@@]2(c3ccc(F)c(-c4cncc(F)c4)c3)N=C(N)N(C)C2=O)cc1` [Example 142A, (5S)-2-Amino-5-[4-fluoro-3-(5-fluoropyridin-3-yl)phenyl]-5-(4-methoxyphenyl)-3-methyl-3,5-dihydro-4H-imidazol-4-one], for which the IC50 on human BACE1 is above 1 µM. For the same molecule, the BACE1/BACE2 selectivity result on human BACE2 was “III (III = <10-fold selectivity)”.
Taken in the same sequence, the figures for `COc1ccc([C@]2(c3ccc(F)c(-c4cncc(F)c4)c3)N=C(N)N(C)C2=O)cc1` [Example 142B, (5R)-2-Amino-5-[4-fluoro-3-(5-fluoropyridin-3-yl)phenyl]-5-(4-methoxyphenyl)-3-methyl-3,5-dihydro-4H-imidazol-4-one] were 0.01 to 0.1 µM and “II (II = 10-100-fold selectivity)”.
For `COc1ccc([C@@]2(c3ccc(F)c(-c4cnccc4F)c3)N=C(N)N(C)C2=O)cc1` [Example 143A, (5S)-2-Amino-5-[4-fluoro-3-(4-fluoropyridin-3-yl)phenyl]-5-(4-methoxyphenyl)-3-methyl-3,5-dihydro-4H-imidazol-4-one] the same measures were above 1 µM and “III (III = <10-fold selectivity)”.
Consider `COc1ccc([C@]2(c3ccc(F)c(-c4cnccc4F)c3)N=C(N)N(C)C2=O)cc1` [Example 143B, (5R)-2-Amino-5-[4-fluoro-3-(4-fluoropyridin-3-yl)phenyl]-5-(4-methoxyphenyl)-3-methyl-3,5-dihydro-4H-imidazol-4-one], for which, on human BACE1, the half-inhibitory concentration (IC50) fell in the range of 0.01 to 0.1 µM. Further, the BACE1/BACE2 selectivity result at human BACE2 is recorded as “II (II = 10-100-fold selectivity)”.
Regarding `CN1CC(c2ccc(OC(F)(F)F)cc2)(c2ccc(F)c(-c3cccnc3F)c2)N=C1N` (stereo not drawn) [Example 144, 4-[4-Fluoro-3-(2-fluoropyridin-3-yl)phenyl]-1-methyl-4-(4-trifluoromethoxyphenyl)-4,5-dihydro-1H-imidazol-2-ylamine], on human BACE1, the concentration for half-maximal inhibition (IC50) was 0.11 to 1 µM. At human BACE2, the BACE1/BACE2 selectivity result was “I (I = >100-fold selectivity)”.
